Where a SMILES comes first, the peptide text is derived from it. [ ]: non-standard residue; d: D form. Gly(decyl) = CCCCCCCCCC[C@H](N)C(=O)O
Columns and labels:
[1] = tested on: human NK cells; assay: Isolated CD3−/CD56+dim NK cell cultures, flow cytometry; assay type: cell-based; settings: 24 h; all concentrations
Method: CD3−/CD56+^dim NK cell populations were isolated from PBMCs using immuno-magnetic separation (Stem cell, Lot no. 18A86421). CD56^+ NK cells were resuspended in RPMI-10 (RPMI-1640 supplemented with 10% heat inactivated FBS, 100 U/mL penicillin, 100 µg/mL streptomycin, 2 mM L-glutamine, and 50 µM β-mercaptoethanol) at 0.25 × 10^6/mL and plated at a density of 2.5 × 10^4 per well (100 µL) in 96-well, flat bottom culture plates. Purified NK cells were cultured together with either IK14004 or recombinant IL-2 (InVitrogen, Lot #223086-011) for […] at 37 °C, 5% CO2.
(§1) Staining was performed to determine cell viability (Flexible Viability Dye eFluorTM 780; ThermoFisher) and expression of extracellular/intracellular markers assessed using fluorescently-labelled antibodies against human proteins within different cell populations. […] After 24 h cells were collected and CD4+ and CD8+ T cells assessed for TCRα/β expression (PE; BioLegend). Phospho-STAT4 in was assessed in TCR-activated CD3 + T cell and PBMC cultures. […] Cells were then stained with fluorochrome conjugated anti-pSTAT4 antibody (eBioscience, Lot# 12-9044) and intracellular expression determined within CD8+ T cells by flow cytometry. Similarly, anti-CD3-stimulated PBMC cultures were exposed only to recombinant IL-12p70 (Peprotech, Lot #0617596) and pSTAT4 assessed within CD4+ /CD8+ T cell fractions. […]

[2] = tested on: splenocytes / CD4+ T cells; assay: Splenocytes from LLC lung metastasis model, fresh or cultured overnight with/without TCR stimulation; assay type: in vivo, mouse; settings: peptide- vs vehicle-treated mice; after 24 h
Method: Spleens were collected and processed into a single cell suspension. Fresh splenocytes were assessed by means of flow cytometry with CD28 (BV421) and 2 × 10^5 cells per well were then cultured overnight with or without TCR stimulation (anti-CD3 alone or in combination with anti-CD28 both at 2 µg/mL, plate bound overnight in PBS at 4 °C). After overnight culture cell free supernatants were collected and assessed for IFN-γ and IL-2 by ELISA (eBioscience Kits) and set up in technical triplicate. Cells before and after stimulation were stained for flow cytometry (viability, CD4, CD28 (BV711), IL-12Rβ1 and IL-12Rβ2.

[3] = tested on: exhausted CD4+ T cells derived from MBP-tracker mouse splenocytes; assay: Murine splenocyte-derived exhausted CD4+ T cell assay; assay type: cell-based; settings: highest concentration 1.25 µM
Method: Concept Life Sciences have established a proprietary method for assessing murine CD4+ T cell exhaustion in vitro using Tg4-Ly5.1 MBP-Tracker Mice obtained from the University of Edinburgh. Spleens were removed from transgenic B10PLxC57BL/6 mice and processed to generate a single cell suspension of splenocytes. Myelin basic protein (MBP)-Tracker splenocytes were resuspended at 3 × 10^6/mL and stimulated 72 h at approximately 37 °C, 5% CO2, with altered peptide ligand (APL)-MBP (to generate exhausted cells). Following stimulation, T cells were purified by Ficoll density gradient, and subsequently re-plated at 2 × 10^6/mL in 20 U/mL IL-2 for four days. At the end of this rest period, cells were resuspended (4 × 10^5/mL, final 2 × 10^4 per well) and restimulated using irradiated APCs (from B10PLxC57BL/6 mice, 4 × 10^6/mL, final concentration of 2 × 10^5 cells per well) plus a single dose of APL-MBP peptide together with IK14004 peptide for 72 h.
Supernatants were sampled from culture wells for assessment of IL-2 and IFN-γ by ELISA (eBioScience, Lot # 4280695 and Lot #. 4308729, respectively) and flow cytometry used for assessment of CD25 and Ki67 (eBioScience, Lot # 4276862 and Lot # 4296884, respectively). Anti-PD-1 and IgG2a antibodies were obtained from BioXCell.

[4] = tested on: splenocyte-derived CD4+ T cells and NK cells; settings: mouse, in vivo
Method: LLC cells sourced from ATCC. The Lewis lung cancer cell line was cultured to approximately 70% confluency before cells were collected and resuspended at 5 × 10^6 /mL in sterile HBSS. […] were injected subcutaneously with 5 × 10^5 cells (100 µL) into the right flank. Mice were randomly assigned to treatment groups 5 days after tumour cell implantation such that the average tumour size was approximately equal between the two groups. Test substance IK14004 or vehicle were administered twice weekly (Monday and Thursday) via intraperitoneal (i.p.) injections, from day 5 post tumour cell implantation, until the tumours reached an average of 10 mm in diameter in the vehicle treated group. Tumours were measured three times each week using digital callipers and once the mean tumour size for the vehicle group reached 10 mm in diameter, mice were sacrificed by cervical dislocation and tumour and spleens collected. Spleens were processed into single cell suspensions and the red blood cells lysed. Fresh splenocyte suspensions were assessed by trypan blue exclusion. From fresh splenocyte suspensions, 1 × 10^6 viable cells were stained using a viability dye (Flexible Viability Dye eFluorTM 780; ThermoFisher), CD4 (BV605), NK1.1 (BV510), CD25 (AF488), IL-12Rβ1 (PE) and IL-12Rβ2 (APC) for flow cytometry.

[5] = tested on: K562 erythroleukemic cells; assay: K562/PBMC co-culture cytotoxicity assay (Calcein AM release); settings: PBMCs exposed to peptide 48 h, then 4 h co-culture at 5:1 ratio; 0.08 to 1.25 µM
Method: Human PBMCs (2.5 × 10^5 cells per well) were cultured in 96-well round-bottom tissue culture plates for 48 h at 37 °C, 5% CO2 in the presence of IK14004 and IKD14004 peptides. After peptide exposure, PBMCs were co-cultured with Calcein AM stained K562 cells (5 × 10^4/well) at a 5:1 ratio for 4 h at 37 °C, 5% CO2. For spontaneous release control Calcein AM-K562 cells alone were treated with PBS (20 µL). For maximal release control Calcein AM-K562 cells alone were treated with lysis buffer (20 µL). After 4 h culture, 150 µL supernatant were transferred to black wall plates and intensity of Calcein green fluorescence release detected using GloMax® Discover to determine percentage of specific cytotoxicity.

[6] = tested on: Lewis lung cancer (LLC) cells; assay: Cancer cell proliferation assay (SRB); assay type: cell-based, mouse; settings: 72 h, doxorubicin 2.5 µM, positive control
Method: Lewis lung cancer (LLC) cells (sourced from the American Type Culture Collection) were seeded into 96-well plates (1000 cells/well) in complete cell culture medium and allowed to attach for 24 h (37 °C, 5% CO2 in air). Next, an equal volume of either cell culture medium only, or 2 × concentration of drug dissolved in cell culture medium, was added to each of 5 replicate wells (technical replicates) to expose cells to concentrations of IK14004 in the dose range from 0 to 5 µM. Cells were cultured for 72 h in the presence of either IK14004 or Doxorubicin (2.5 µM; positive control) and then the cell culture medium was removed and the attached cells fixed in ice-cold trichloroacetic acid. Fixed cells were stained with Sulforhodamine B (SRB) and then washed with 1% acetic acid to remove unbound dye. The retained dye was solubilised in 10 mM Tris base solution and the absorbance at 550 nm was measured with the baseline (media only without cells) subtracted. The data were normalised between the maximum proliferation (100%, cells with no drug) and the starting cell density (0%, cells before addition of drug). Each experiment was performed on two independent occasions (biological replicates).

[7] = tested on: human PBMCs (CD4+/CD8+ T cells, NK cells); assay: Anti-CD3-stimulated human PBMC cultures, flow cytometry/ELISA; assay type: cell-based; settings: rIL-12p70 10 ng/mL; 72 h
Method: Preparations of peripheral blood mononuclear cells (PBMCs) and isolated T cells from buffy coat samples were performed using SepMate tubes, EasySep selection and enrichment kits, Lymphoprep, RoboSep Buffer, and EasySep magnets (STEMCELL Company). PBMCs were resuspended in RPMI-10 (RPMI-1640; ThermoFisher) supplemented with 10% heat inactivated Foetal Bovine Serum (LabTech), 100 U/mL penicillin, 100 µg/mL streptomycin (ThermoFisher), 2 mM L-glutamine (ThermoFisher), and 50 µM β-mercaptoethanol (ThermoFisher) at 1 × 10^6 cells/mL and plated at a density of 1 × 10^5 per well (100 µL) in 96-well, flat-bottom culture plates. […]
as §1, with “[…] Flow cytometry data” for “Similarly, anti-CD3-stimulated PBMC cultures”, “exported as FCS files from Attune™ NxT software” for “exposed only to recombinant IL-12p70 (Peprotech, Lot #0617596)”, “analysed using FlowJo™ software.” for “pSTAT4 assessed within CD4+ /CD8+ T cell fractions.”

With `CCCCCCCCCC[C@H](NC(=O)[C@H](CCCCCCCCCC)NC(=O)[C@H](CCCCCCCCCC)NC(=O)[C@H](CCCCCCCCCC)NC(=O)[C@H](CCCNC(=N)N)NC(=O)[C@H](Cc1ccc(O)cc1)NC(=O)[C@H](CC(C)C)NC(=O)[C@@H]1CCCN1C(=O)[C@H](CC(N)=O)NC(=O)[C@H](CCCCN)NC(=O)[C@H](C)NC(=O)[C@H](CCCCN)NC(=O)[C@H](CO)NC(=O)[C@@H](N)CCCNC(=N)N)C(N)=O` [IK14004, RSKAKNPLYR-(2)Adod-(2)Adod-(2)Adod-(2)Adod-amide] (H-RSKAKNPLYR[Gly(decyl)][Gly(decyl)][Gly(decyl)][Gly(decyl)]-NH2) the “percentage of viable NK cells” value [1] was “remained unchanged”, the “viability of cultured splenocytes” value [2] was “no differences” and the “visual signs of cell death at end of splenocyte culture” value [3] was “no visual signs of cell death”. For the same molecule, the “viability of freshly harvested splenocytes” value [4] was roughly 100% and the “significant K562 cytotoxicity” value [5] was “at most concentrations”.

In the case of `COc1cccc2c1C(=O)c1c(O)c3c(c(O)c1C2=O)C[C@@](O)(C(=O)CO)C[C@@H]3O[C@H]1C[C@H](N)[C@H](O)[C@H](C)O1` [doxorubicin], the “proliferation of the LLC cell line” value [6] is reported as “total cell kill”.

B1: rIL-12p70: recombinant IL-12p70 (Peprotech), 10 ng/mL (protein, UniProt P29459 23-219; P29460 23-328, looked up)
Interleukin-12 subunit alpha: RNLPVATPDPGMFPCLHHSQNLLRAVSNMLQKARQTLEFYPCTSEEIDHEDITKDKTSTVEACLPLELTKNESCLNSRETSFITNGSCLASRKTSFMMALCLSSIYEDLKMYQVEFKTMNAKLLMDPKRQIFLDQNMLAVIDELMQALNFNSETVPQKSSLEEPDFYKTKIKLCILLHAFRIRAVTIDRVMSYLNAS
Interleukin-12 subunit beta: IWELKKDVYVVELDWYPDAPGEMVVLTCDTPEEDGITWTLDQSSEVLGSGKTLTIQVKEFGDAGQYTCHKGGEVLSHSLLLLHKKEDGIWSTDILKDQKEPKNKTFLRCEAKNYSGRFTCWWLTTISTDLTFSVKSSRGSSDPQGVTCGAATLSAERVRGDNKEYEYSVECQEDSACPAAEESLPIEVMVDAVHKLKYENYTSSFFIRDIIKPDPPKNLQLKPLKNSRQVEVSWEYPDTWSTPHSYFSLTFCVQVQGKSKREKKDRVFTDKTSATVICRKNASISVRAQDRYYSSSWSEWASVPCS
With B1 the “percentage of pSTAT4-expressing CD8+ T cells” value [7] was “as did the percentage of pSTAT4-expressing CD8+ T cells” and the “proportion of pSTAT4-expressing CD4+ T cells” value [7] was “increased”.

From publication PMC10643673, “An immunomodulating peptide with potential to suppress tumour growth and autoimmunity” (Scientific Reports, 2023)
